Experimental data taken from patent publication US4753953A, “Pyridonecarboxylic acid derivatives and antibacterial pharmaceutical compositions thereof” (priority 1985, dated 1988).
Values after ≈ are worked out from the molar mass of the structure shown. Where two headings read alike, the source gives them in different places.

Experiments:
[1] = system: Veillonella parvula KYA 10790; experiment: MIC, in vitro antibacterial activity (standard strains); type: cell-based; settings: Veillonella parvula, KYA10790; 10^6 cells/ml; Gram -; read-out: MIC
S. pyogenes IID 692 = experiment: as above; type: cell-based, Streptococcus pyogenes; settings: Streptococcus pyogenes, IID692; 10^6 cells/ml; Gram +; read-out: MIC
Shigella sonnei IID 969 = experiment: as above; type: cell-based; settings: Shigella sonnei, IID969; 10^6 cells/ml; Gram -; read-out: MIC
Protocol: Minimal inhibitory concentrations (MICs) were determined in accordance with the method recommended by Japan Society of Chemotherapy.

[2] = system: Escherichia coli NIHJ JC-2; experiment: as above; type: cell-based; settings: Escherichia coli, NIHJJC2
[3] = system: Salmonella enteritidis IID 604; experiment: as above; type: cell-based; settings: Salmonella enterica; 10^6 cells/ml; Gram -; read-out: MIC
P. cepacia GIFU 518 = experiment: as above; type: cell-based; settings: Burkholderia cepacia, GIFU518
E. limosum KYA 8486 = experiment: as above; type: cell-based; settings: Eubacterium limosum, KYA8486; 10^6 cells/ml; Gram +; read-out: MIC
P. maltophilia GIFU 2491 = experiment: as above; type: cell-based; settings: Stenotrophomonas maltophilia, GIFU2491; 10^6 cells/ml; Gram -; read-out: MIC
[4] = system: Clostridium difficile I-E; experiment: as above; type: cell-based; settings: Clostridioides difficile; 10^6 cells/ml; Gram +
B. fragilis 25285 = experiment: as above; type: cell-based, Bacteroides fragilis; settings: Bacteroides fragilis, 25285; 10^6 cells/ml; Gram -; read-out: MIC
[5] = system: Acinetobacter anitratus IID 876; experiment: as above; type: cell-based; settings: Acinetobacter calcoaceticus, IID876; 10^6 cells/ml; Gram -; read-out: MIC
[6] = system: Enterobacter cloacae IID 977; experiment: as above; type: cell-based; settings: Enterobacter cloacae, IID977; 10^6 cells/ml; Gram -; read-out: MIC
[7] = system: Streptococcus pyogenes (S-8); experiment: as above; type: cell-based; settings: Streptococcus pyogenes; 10^6 cells/ml; Gram +; read-out: MIC
[8] = system: Alcaligenes faecalis 0114002; experiment: as above; type: cell-based; settings: Alcaligenes faecalis, 0114002; 10^6 cells/ml; Gram -; read-out: MIC
S. aureus Smith = experiment: as above; type: cell-based, Staphylococcus aureus; settings: Staphylococcus aureus; 10^6 cells/ml; Gram +; read-out: MIC
[9] = system: Staphylococcus aureus 209 P; experiment: as above; type: cell-based; settings: Staphylococcus aureus, 209P; 10^6 cells/ml; Gram +; read-out: MIC
[10] = system: Klebsiella pneumoniae KY(GN)6445; experiment: as above; type: cell-based; settings: Klebsiella pneumoniae; 10^6 cells/ml; Gram -; read-out: MIC
MR S. aureus KYB 623 [11] = experiment: MIC of the infecting strain MR S. aureus KYB 623; type: cell-based; settings: Staphylococcus aureus; Table 3, strain of the mouse infection
MR S. aureus KYB 623 [12] = experiment: Therapeutic efficacy against systemic infections in mice, MR S. aureus KYB 623; settings: Staphylococcus aureus, in Mus musculus, po, 1 h
S. pneumoniae S-4288 [13] = experiment: MIC of the infecting strain S. pneumoniae S-4288; type: cell-based; settings: Streptococcus pneumoniae, S4288; Table 4, strain of the mouse infection
E. coli ML 4707 = experiment: Therapeutic efficacy against systemic infections in mice, E. coli ML 4707; settings: Escherichia coli, ML4707, in Mus musculus, po, 1 h
S. pneumoniae S-4288 [14] = experiment: Therapeutic efficacy against systemic infections in mice, S. pneumoniae S-4288; settings: Streptococcus pneumoniae, S4288, in Mus musculus, po, 1 h
[15] = 10^6 cells/ml, Gram -, read-out: MIC

SMILES	MIC [1]	MIC (S. pyogenes IID 692)	MIC (Shigella sonnei IID 969)	MIC [2, 15]	MIC [3]	MIC (P. cepacia GIFU 518; [15])	MIC (E. limosum KYA 8486)	MIC (P. maltophilia GIFU 2491)	MIC [4]	MIC (B. fragilis 25285)	MIC [5]	MIC [6]	MIC [7]	MIC [8]	MIC (S. aureus Smith)	MIC [9]	MIC [10]	MIC (P. cepacia GIFU 518)	further results
C[C@H]1CN(c2c(F)cc3c(=O)c(C(=O)O)cn4c3c2OC[C@@H]4C)C[C@H]1N.Cl (mixture of isomers) [Example 31, (3S)-10-(cis-3-Amino-4-methyl-1-pyrrolidinyl)-9-fluoro-2,3-dihydro-3-methyl-7-oxo-7H-pyrido[1,2,3-de][1,4]benzoxazine-6-carboxylic acid hydrochloride]	0.2 µg/mL	0.2 µg/mL	0.05 µg/mL	0.025 µg/mL	0.1 µg/mL	1.56 µg/mL	3.13 µg/mL	0.78 µg/mL	3.13 µg/mL	0.78 µg/mL	1.56 µg/mL	0.1 µg/mL	0.2 µg/mL	0.39 µg/mL	0.2 µg/mL	0.2 µg/mL	0.05 µg/mL	–	–
CC1COc2c(N3C[C@@H](N)[C@@H](C)C3)c(F)cc3c(=O)c(C(=O)O)cn1c23.Cl (relative stereo) [Example 29, 10-(cis-3-Amino-4-methyl-1-pyrrolidinyl)-9-fluoro-2,3-dihydro-3-methyl-7-oxo-7H-pyrido[1,2,3-de][1,4]benzoxazine-6-carboxylic acid hydrochloride]	0.39 µg/mL	0.39 µg/mL	0.05 µg/mL	0.025 µg/mL	0.1 µg/mL	1.56 µg/mL	6.25 µg/mL	1.56 µg/mL	6.25 µg/mL	1.56 µg/mL	1.56 µg/mL	0.2 µg/mL	0.39 µg/mL	1.56 µg/mL	0.2 µg/mL	0.2 µg/mL	0.05 µg/mL	–	–
C[C@@H]1CN(c2c(F)cc3c(=O)c(C(=O)O)cn(C4CC4)c3c2Cl)C[C@H]1N (relative stereo) [Example 17, 7-(trans-3-Amino-4-methyl-1-pyrrolidinyl)-8-chloro-1-cyclopropyl-6-fluoro-1,4-dihydro-4-oxo-3-quinolinecarboxylic acid]	0.05 µg/mL (≈ 0.132 µM)	–	0.0063 µg/mL (≈ 0.0166 µM)	0.0063 µg/mL (≈ 0.0166 µM)	0.025 µg/mL (≈ 0.0658 µM)	–	–	0.05 µg/mL (≈ 0.132 µM)	0.39 µg/mL	0.05 µg/mL (≈ 0.132 µM)	0.025 µg/mL (≈ 0.0658 µM)	0.05 µg/mL (≈ 0.132 µM)	–	0.05 µg/mL (≈ 0.132 µM)	0.025 µg/mL (≈ 0.0658 µM)	0.025 µg/mL (≈ 0.0658 µM)	0.0125 µg/mL (≈ 0.0329 µM)	0.2 µg/mL (≈ 0.527 µM)	MIC (MR S. aureus KYB 623 [11]): 0.0125 µg/mL; ED50 (MR S. aureus KYB 623 [12]): 2.1 mg/kg
CCNCC1CN(c2c(F)cc3c(=O)c(C(=O)O)cn(C4CC4)c3c2Cl)CC1C (stereo not drawn) [Example 14, 8-Chloro-1-cyclopropyl-7-(3-ethylaminomethyl-4-methyl-1-pyrrolidinyl)-6-fluoro-1,4-dihydro-4-oxo-3-quinolinecarboxylic acid]	0.39 µg/mL (≈ 0.924 µM)	0.05 µg/mL (≈ 0.119 µM)	0.025 µg/mL (≈ 0.0593 µM)	0.025 µg/mL (≈ 0.0593 µM)	0.2 µg/mL (≈ 0.474 µM)	–	0.78 µg/mL (≈ 1.85 µM)	0.39 µg/mL (≈ 0.924 µM)	0.1 µg/mL	0.05 µg/mL (≈ 0.119 µM)	0.1 µg/mL (≈ 0.237 µM)	0.2 µg/mL (≈ 0.474 µM)	0.05 µg/mL (≈ 0.119 µM)	0.78 µg/mL (≈ 1.85 µM)	0.0125 µg/mL (≈ 0.0296 µM)	0.0125 µg/mL (≈ 0.0296 µM)	0.05 µg/mL (≈ 0.119 µM)	0.78 µg/mL (≈ 1.85 µM)	–
CC1CN(c2c(F)cc3c(=O)c(C(=O)O)cn(C4CC4)c3c2F)CC1N.Cl (stereo not drawn) [Example 11, 7-(3-Amino-4-methyl-1-pyrrolidinyl)-1-cyclopropyl-6,8-difluoro-1,4-dihydro-4-oxo-3-quinolinecarboxylic acid hydrochloride]	0.39 µg/mL	–	0.025 µg/mL	–	0.05 µg/mL	0.39 µg/mL	0.78 µg/mL	0.1 µg/mL	–	0.39 µg/mL	0.05 µg/mL	0.05 µg/mL	–	0.2 µg/mL	0.05 µg/mL	0.05 µg/mL	0.025 µg/mL	–	MIC [2]: 0.0125 µg/mL; MIC (S. pneumoniae S-4288 [13]): 0.2 µg/mL; ED50 (E. coli ML 4707): 1 mg/kg; ED50 (S. pneumoniae S-4288 [14]): 20.7 mg/kg
CCn1cc(C(=O)O)c(=O)c2cc(F)c(N3C[C@@H](N)[C@@H](C)C3)c(Cl)c21 (relative stereo) [Example 23, 7-(cis-3-Amino-4-methyl-1-pyrrolidinyl)-8-chloro-1-ethyl-6-fluoro-1,4-dihydro-4-oxo-3-quinolinecarboxylic acid]	0.78 µg/mL (≈ 2.12 µM)	0.78 µg/mL (≈ 2.12 µM)	0.05 µg/mL (≈ 0.136 µM)	0.025 µg/mL (≈ 0.068 µM)	0.1 µg/mL (≈ 0.272 µM)	–	6.25 µg/mL (≈ 17 µM)	0.39 µg/mL (≈ 1.06 µM)	6.25 µg/mL	0.78 µg/mL (≈ 2.12 µM)	0.39 µg/mL (≈ 1.06 µM)	0.1 µg/mL (≈ 0.272 µM)	0.78 µg/mL (≈ 2.12 µM)	1.56 µg/mL (≈ 4.24 µM)	0.2 µg/mL (≈ 0.544 µM)	0.1 µg/mL (≈ 0.272 µM)	0.05 µg/mL (≈ 0.136 µM)	0.78 µg/mL (≈ 2.12 µM)	–
CNCC1CN(c2c(F)cc3c(=O)c(C(=O)O)cn(C4CC4)c3c2Cl)CC1C (stereo not drawn) [Example 12, 8-Chloro-1-cyclopropyl-6-fluoro-1,4-dihydro-7-(3-methylaminomethyl-4-methyl-1-pyrrolidinyl)-4-oxo-3-quinolinecarboxylic acid]	0.39 µg/mL (≈ 0.956 µM)	0.05 µg/mL (≈ 0.123 µM)	0.025 µg/mL (≈ 0.0613 µM)	0.05 µg/mL (≈ 0.123 µM)	0.1 µg/mL (≈ 0.245 µM)	0.78 µg/mL (≈ 1.91 µM)	0.39 µg/mL (≈ 0.956 µM)	0.2 µg/mL (≈ 0.49 µM)	0.2 µg/mL	0.1 µg/mL (≈ 0.245 µM)	0.2 µg/mL (≈ 0.49 µM)	0.2 µg/mL (≈ 0.49 µM)	0.05 µg/mL (≈ 0.123 µM)	0.39 µg/mL (≈ 0.956 µM)	0.05 µg/mL (≈ 0.123 µM)	0.05 µg/mL (≈ 0.123 µM)	0.05 µg/mL (≈ 0.123 µM)	–	–
CNCC1CN(c2c(F)cc3c(=O)c(C(=O)O)cn(C4CC4)c3c2F)CC1C (stereo not drawn) [Example 13, 1-Cyclopropyl-6,8-difluoro-1,4-dihydro-7-(3-methylaminomethyl-4-methyl-1-pyrrolidinyl)-4-oxo-3-quinolinecarboxylic acid]	0.78 µg/mL (≈ 1.99 µM)	0.2 µg/mL (≈ 0.511 µM)	0.05 µg/mL (≈ 0.128 µM)	0.05 µg/mL (≈ 0.128 µM)	0.1 µg/mL (≈ 0.255 µM)	–	1.56 µg/mL (≈ 3.99 µM)	0.39 µg/mL (≈ 0.996 µM)	0.78 µg/mL	0.78 µg/mL (≈ 1.99 µM)	0.1 µg/mL (≈ 0.255 µM)	0.2 µg/mL (≈ 0.511 µM)	0.1 µg/mL (≈ 0.255 µM)	0.78 µg/mL (≈ 1.99 µM)	0.05 µg/mL (≈ 0.128 µM)	0.05 µg/mL (≈ 0.128 µM)	0.05 µg/mL (≈ 0.128 µM)	0.78 µg/mL (≈ 1.99 µM)	–
C[C@H]1CN(c2c(F)cc3c(=O)c(C(=O)O)cn(C4CC4)c3c2Cl)C[C@H]1N (relative stereo) [Example 16, 7-(cis-3-Amino-4-methyl-1-pyrrolidinyl)-8-chloro-1-cyclopropyl-6-fluoro-1,4-dihydro-4-oxo-3-quinolinecarboxylic acid]	0.1 µg/mL (≈ 0.263 µM)	0.1 µg/mL (≈ 0.263 µM)	0.0063 µg/mL (≈ 0.0166 µM)	0.0063 µg/mL (≈ 0.0166 µM)	0.025 µg/mL (≈ 0.0658 µM)	–	–	0.05 µg/mL (≈ 0.132 µM)	0.39 µg/mL	0.05 µg/mL (≈ 0.132 µM)	0.025 µg/mL (≈ 0.0658 µM)	0.05 µg/mL (≈ 0.132 µM)	0.1 µg/mL (≈ 0.263 µM)	0.1 µg/mL (≈ 0.263 µM)	0.025 µg/mL (≈ 0.0658 µM)	0.05 µg/mL (≈ 0.132 µM)	0.025 µg/mL (≈ 0.0658 µM)	0.39 µg/mL (≈ 1.03 µM)	MIC (MR S. aureus KYB 623 [11]): 0.025 µg/mL; MIC (S. pneumoniae S-4288 [13]): 0.1 µg/mL; ED50 (E. coli ML 4707): 1 mg/kg; ED50 (MR S. aureus KYB 623 [12]): 3.7 mg/kg; ED50 (S. pneumoniae S-4288 [14]): 12.1 mg/kg
